Experimental data from PubChem BioAssay (NCI).
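Interpolation was linear, between the two tested concentrations surrounding the appropriate level; five concentrations were tested over 48 hours in 96-well plates. GI50 is the concentration that inhibits growth by half. TGI is the concentration that stops growth completely.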

What was measured:
Assay in all cases: NCI tumour cell line growth inhibition, 48 h
HCT-116 colon = system: HCT-116 colon
SK-MEL-5 melanoma = system: SK-MEL-5 melanoma
M14 melanoma = system: M14 melanoma
MALME-3M melanoma = system: MALME-3M melanoma
ACHN renal = system: ACHN renal
NCI/ADR-RES ovarian = system: NCI/ADR-RES ovarian
SW-620 colon = system: SW-620 colon
SNB-19 CNS = system: SNB-19 CNS
OVCAR-5 ovarian = system: OVCAR-5 ovarian
CCRF-CEM leukemia = system: CCRF-CEM leukemia

COc1ccc(N=N/C(C(=O)C(F)(F)F)=C(\O)c2ccc(Cl)cc2)cc1
GI50 (HCT-116 colon): 6.64 µM | TGI (HCT-116 colon): 26.2 µM | GI50 (SK-MEL-5 melanoma): 3.63 µM | TGI (SK-MEL-5 melanoma): 14.3 µM | GI50 (M14 melanoma): 2.84 µM | TGI (M14 melanoma): 14.9 µM | GI50 (MALME-3M melanoma): 16.1 µM | TGI (MALME-3M melanoma): 85.6 µM | GI50 (ACHN renal): 6.53 µM | TGI (ACHN renal): > 100 µM | GI50 (NCI/ADR-RES ovarian): 3.56 µM | TGI (NCI/ADR-RES ovarian): 23.2 µM | GI50 (SW-620 colon): 4.36 µM | TGI (SW-620 colon): > 100 µM | GI50 (SNB-19 CNS): 16.5 µM | TGI (SNB-19 CNS): > 100 µM | GI50 (OVCAR-5 ovarian): 12.5 µM | TGI (OVCAR-5 ovarian): > 100 µM | GI50 (CCRF-CEM leukemia): 4.61 µM | TGI (CCRF-CEM leukemia): > 100 µM

CC[n+]1c(/C=C/C=C2\N(C)c3ccccc3C2(C)C)sc2ccccc21
GI50 (HCT-116 colon): 4.15 µM | TGI (HCT-116 colon): 8.16 µM | GI50 (SK-MEL-5 melanoma): 3.79 µM | TGI (SK-MEL-5 melanoma): 7.33 µM | GI50 (M14 melanoma): 4.03 µM | TGI (M14 melanoma): 8.33 µM | GI50 (MALME-3M melanoma): 4.28 µM | TGI (MALME-3M melanoma): 8.1 µM | GI50 (ACHN renal): 4.1 µM | TGI (ACHN renal): 8.21 µM | GI50 (NCI/ADR-RES ovarian): 4.26 µM | TGI (NCI/ADR-RES ovarian): 8.9 µM | GI50 (SW-620 colon): 4.19 µM | TGI (SW-620 colon): 8.27 µM | GI50 (SNB-19 CNS): 4.1 µM | TGI (SNB-19 CNS): 7.8 µM | GI50 (OVCAR-5 ovarian): 4.82 µM | TGI (OVCAR-5 ovarian): 11.7 µM | GI50 (CCRF-CEM leukemia): 4.96 µM | TGI (CCRF-CEM leukemia): 18.1 µM

CO[C@H]1C[C@@H]2CC[C@@H](C)[C@@](O)(O2)C(=O)C(=O)N2CCCC[C@H]2C(=O)O[C@H]([C@H](C)C[C@@H]2CC[C@@H](OCCO)[C@H](OC)C2)CC(=O)[C@H](C)C=C(C)[C@@H](O)[C@@H](OC)C(=O)[C@H](C)C[C@H](C)/C=C/C=C/C=C1C
GI50 (HCT-116 colon): 3.43 µM | TGI (HCT-116 colon): 18.9 µM | GI50 (SK-MEL-5 melanoma): 1.75 µM | TGI (SK-MEL-5 melanoma): 18.1 µM | GI50 (M14 melanoma): 3.12 µM | TGI (M14 melanoma): 20.5 µM | GI50 (MALME-3M melanoma): < 0.01 µM | GI50 (ACHN renal): < 0.01 µM | TGI (ACHN renal): 18.8 µM | GI50 (NCI/ADR-RES ovarian): 3.26 µM | TGI (NCI/ADR-RES ovarian): 31.7 µM | GI50 (SW-620 colon): 8.49 µM | TGI (SW-620 colon): 23.9 µM | TGI (SNB-19 CNS): 19.5 µM | GI50 (OVCAR-5 ovarian): < 0.01 µM | TGI (OVCAR-5 ovarian): 20.3 µM | TGI (CCRF-CEM leukemia): > 43.1 µM
